Here are results for 15 compounds from ChEMBL document CHEMBL2311360 (J Med Chem, 2013).

In one test the target is Tubulin (Sus scrofa) (UniProt P02554+P02550). The test is described as follows: Displacement of [3H]Vinblastine from pig tubulin at 7.2 x 10^-5 M after 60 mins. The class given is protein assay.
The next test has as its system L1210. In words: Cytotoxicity against mouse L1210 cells assessed as growth inhibition after 72 hrs by phosphatase assay. The test is classed as functional, cell-based. Particulars: L1210, 72 h.
The subject of a further test is HCT-116. The test is described as follows: Cytotoxicity against human HCT116 cells assessed as growth inhibition after 72 hrs by phosphatase assay. The class given is functional, cell-based. The settings on record: HCT-116, 72 h.
Another test concerns HCT-116/VM46. The test is described as follows: Cytotoxicity against human vinblastine-resistant HCT116/VM46 cells assessed as growth inhibition after 72 hrs by phosphatase assay. Particulars: HCT-116/VM46, 72 h. The class given is functional, cell-based.

As a reminder, the inhibition is the relative decrease from the control value, in per cent. Usually IC50 stands for the concentration that inhibits the measured activity by half.

Chain of Tubulin (Sus scrofa) (P02550 whole entry, looked up): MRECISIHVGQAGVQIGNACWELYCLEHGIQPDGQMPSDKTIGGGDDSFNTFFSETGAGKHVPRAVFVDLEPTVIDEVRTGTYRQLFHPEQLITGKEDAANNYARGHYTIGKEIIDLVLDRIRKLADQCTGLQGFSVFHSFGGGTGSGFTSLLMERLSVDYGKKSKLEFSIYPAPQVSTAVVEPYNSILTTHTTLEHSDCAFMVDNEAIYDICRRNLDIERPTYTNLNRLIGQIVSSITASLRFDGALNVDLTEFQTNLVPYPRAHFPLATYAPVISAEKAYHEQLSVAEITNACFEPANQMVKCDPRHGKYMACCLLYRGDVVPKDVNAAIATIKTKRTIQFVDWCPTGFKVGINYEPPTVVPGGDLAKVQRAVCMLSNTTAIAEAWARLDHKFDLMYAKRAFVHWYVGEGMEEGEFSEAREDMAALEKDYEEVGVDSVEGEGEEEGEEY
Chain of Tubulin (Sus scrofa) (P02554 whole entry, looked up): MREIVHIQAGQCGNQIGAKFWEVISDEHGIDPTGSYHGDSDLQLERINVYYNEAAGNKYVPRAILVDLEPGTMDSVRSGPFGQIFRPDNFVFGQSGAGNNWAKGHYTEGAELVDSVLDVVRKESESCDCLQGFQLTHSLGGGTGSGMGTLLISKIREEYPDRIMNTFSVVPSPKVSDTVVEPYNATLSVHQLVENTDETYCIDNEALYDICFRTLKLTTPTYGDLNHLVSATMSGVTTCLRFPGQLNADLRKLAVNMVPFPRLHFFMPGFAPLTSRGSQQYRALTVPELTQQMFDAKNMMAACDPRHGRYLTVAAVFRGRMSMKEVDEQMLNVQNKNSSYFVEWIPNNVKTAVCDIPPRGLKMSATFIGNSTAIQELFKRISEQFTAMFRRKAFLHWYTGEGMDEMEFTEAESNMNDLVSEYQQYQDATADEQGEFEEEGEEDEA

The compound `CC[C@]1(O)C[C@H]2CN(CCc3c([nH]c4ccccc34)[C@@](C(=O)OC)(c3cc4c(cc3OC)N(C)[C@@H]3[C@]45CCCN4CC=C[C@@](CC)(C[C@]3(O)C(=O)OC)[C@H]45)C2)C1` had an inhibition at Tubulin (Sus scrofa) of 68.5%. Also, the results for the concentration for half-maximal inhibition (IC50) with L1210, with HCT-116 and in the test with HCT-116/VM46 were 0.37 µM, 0.43 µM and 5.7 µM, respectively.
`CC[C@]1(O)C[C@H]2CN(CCc3c([nH]c4ccccc34)[C@@](C(=O)OC)(c3cc4c(cc3OC)N(C)[C@H]3[C@@](O)(C(=O)OC)[C@H](OC(C)=O)[C@]5(CC)CCN6CCC[C@]43[C@@H]65)C2)C1` registered an inhibition on Tubulin (Sus scrofa) of 48.4%. Further, the IC50 was 0.0072 µM in the test on L1210, 0.0065 µM in the test with HCT-116 and 0.45 µM with HCT-116/VM46.
On to `CC[C@]1(O)C[C@H]2CN(CCc3c([nH]c4ccccc34)[C@@](C(=O)OC)(c3cc4c(cc3OC)N(C)[C@@H]3[C@]45CCN4CC=C[C@@](CC)(C[C@]3(O)C(=O)OC)[C@H]45)C2)C1`, for which the IC50 with L1210 is 0.06 µM; in the test with HCT-116, 0.06 µM; in the test on HCT-116/VM46, 0.66 µM.
In turn, `CC[C@]1(O)C[C@H]2CN(CCc3c([nH]c4ccccc34)[C@@](C(=O)OC)(c3cc4c(cc3OC)N(C)[C@H]3[C@@](O)(C(=O)OC)[C@H](OC(C)=O)[C@]5(CC)CCCN6CC[C@]43[C@@H]65)C2)C1` registered an inhibition at Tubulin (Sus scrofa) of 77.4%. The concentration for half-maximal inhibition (IC50) with L1210 came to 0.57 µM; in the test with HCT-116, 0.37 µM; in the test with HCT-116/VM46, 4.5 µM.
As for `CC[C@]1(O)C[C@H]2CN(CCc3c([nH]c4ccccc34)[C@@](C(=O)OC)(c3cc4c(cc3OC)N(C)[C@@H]3[C@]45CCN4CCC[C@@](CC)(C[C@]3(O)C(=O)OC)[C@H]45)C2)C1`, the results for the concentration for half-maximal inhibition (IC50) in the test on L1210, in the test on HCT-116 and in the test on HCT-116/VM46 were 0.66 µM, 0.67 µM and 4 µM, respectively.
`CC[C@]1(O)C[C@@H]2CN(CCc3c([nH]c4ccccc34)[C@@](C(=O)OC)(c3cc4c(cc3OC)N(C)[C@H]3[C@@](O)(C(=O)OC)[C@H](OC(C)=O)[C@]5(CC)C=CCN6CC[C@]43[C@@H]65)C2)C1`: the inhibition on Tubulin (Sus scrofa) was determined as 50%.
As for `CCC1=C[C@H]2CN(CCc3c([nH]c4ccccc34)[C@@](C(=O)OC)(c3cc4c(cc3OC)N(C)[C@H]3[C@@](O)(C(=O)OC)[C@H](OC(C)=O)[C@]5(CC)CCN6CC[C@]43[C@@H]65)C2)C1`, the concentration for half-maximal inhibition (IC50) in the test on L1210 turned out to be 0.7 µM; in the test with HCT-116, 0.63 µM; with HCT-116/VM46 it was 7 µM.
As to `CCC1=C[C@@H]2CN(C1)Cc1c([nH]c3ccccc13)[C@@](C(=O)OC)(c1cc3c(cc1OC)N(C)[C@H]1[C@@](O)(C(=O)OC)[C@H](OC(C)=O)[C@]4(CC)C=CCN5CC[C@]31[C@@H]54)C2` [VINORELBINE], the IC50 with L1210 is 0.065 µM; with HCT-116 it was 0.075 µM; in the test on HCT-116/VM46, 0.6 µM.
For the compound `CC[C@]1(O)C[C@H]2CN(CCc3c([nH]c4ccccc34)[C@@](C(=O)OC)(c3cc4c(cc3OC)N(C)[C@@H]3[C@]45CCCN4CCC[C@@](CC)(C[C@]3(O)C(=O)OC)[C@@H]45)C2)C1`, the values for the half-maximal inhibitory concentration (IC50) with L1210, with HCT-116 and with HCT-116/VM46 were 0.055 µM, 0.08 µM and 0.9 µM, respectively.
Taken in the same sequence, the figures for `CC[C@]1(O)C[C@H]2CN(CCc3c([nH]c4ccccc34)[C@@](C(=O)OC)(c3cc4c(cc3OC)N(C)[C@H]3[C@@](O)(C(=O)OC)[C@@H](OC(C)=O)[C@]5(CC)C=CCN6CC[C@]43[C@@H]65)C2)C1` were 0.075 µM, 0.08 µM and 8.4 µM.
As to `CC[C@]1(O)C[C@H]2CN(CCc3c([nH]c4ccccc34)[C@@](C(=O)OC)(c3cc4c(cc3OC)N(C)[C@@H]3[C@]45CCCN4CC=C[C@@](CC)(C[C@]3(O)C(=O)OC)[C@@H]45)C2)C1`, the half-inhibitory concentration (IC50) is 0.065 µM in the test with L1210, 0.1 µM with HCT-116 and 0.73 µM in the test with HCT-116/VM46.
Taken in the same sequence, the figures for `CC[C@]1(O)C[C@H]2CN(CCc3c([nH]c4ccccc34)[C@@](C(=O)OC)(c3cc4c(cc3OC)N(C)[C@@H]3[C@]45CCCN4CCC[C@@](CC)(C[C@]3(O)C(=O)OC)[C@H]45)C2)C1` were 5.7 µM, 7.4 µM and above 10 µM.
For `CC[C@]1(O)C[C@H]2CN(CCc3c([nH]c4ccccc34)[C@@](C(=O)OC)(c3cc4c(cc3OC)N(C)[C@H]3[C@@](O)(C(=O)OC)[C@@H](OC(C)=O)[C@]5(CC)CCN6CCC[C@]43[C@@H]65)C2)C1` the same measures were 0.6 µM, 0.68 µM and 7.6 µM.
Regarding `CC[C@]1(O)C[C@H]2CN(CCc3c([nH]c4ccccc34)[C@@](C(=O)OC)(c3cc4c(cc3OC)N(C)[C@H]3[C@@](O)(C(=O)OC)[C@H](OC(C)=O)[C@]5(CC)CCN6CC[C@]43[C@@H]65)C2)C1`, the IC50 came out at 0.56 µM with L1210, 0.08 µM in the test with HCT-116 and 7.8 µM in the test on HCT-116/VM46.
As to `CCC1=C[C@H]2CN(CCc3c([nH]c4ccccc34)[C@@](C(=O)OC)(c3cc4c(cc3OC)N(C)[C@H]3[C@@](O)(C(=O)OC)[C@H](OC(C)=O)[C@]5(CC)CCCN6CC[C@]43[C@@H]65)C2)C1`, the results for the half-maximal inhibitory concentration (IC50) with L1210, in the test with HCT-116 and in the test with HCT-116/VM46 were 0.74 µM, 0.89 µM and 3.5 µM, respectively.
